Where two headings read alike, the source gives them in different places.
How the values were obtained:
[1] = tested on: HL-60 cells; experiment: PMA-induced adherence (attachment) of HL-60 cells; type: cell-based, human; conditions: for Adherent cells (%): 72 h; for IC50: Homo sapiens
Experimental: Cells were centrifuged at 600 g for 3 min, and added at 1×10^5 cells per well in 12-well culture dishes. Medium, PMA, and long-chain bases (prepared as the 1:1 molar complex with fatty acid-free bovine serum albumin) at the indicated concentrations were added for a total volume of 2.0 ml. After the desired times, the cells in suspension were counted and checked for viability (trypan blue exclusion) with a hemacytometer. The attached cells were quantitated by measuring DNA content according to the method of West et al (Anal. Biochem., 147, 289-295, 1985) and by assaying for acid phosphatase according to the method of Schnyder (J. Exp. Med., 148, 434-445, 1978).

[2] = tested on: HL-60 cells; experiment: Morphology and marker enzymes (ANA esterase, acid phosphatase) of HL-60 cells on day 3; type: cell-based, human; conditions: 3 days
Excerpt: Expression of most other signs of HL-60 cell differentiation requires longer time periods after treatment with PMA. For these experiments, the cells were examined on day 3 for adherence and acid phosphatase activity (Table IV) and morphology and the marker enzymes alpha-naptholacetate (ANA) esterase and acid phosphatase (Table V).

[3] = tested on: protein kinase C; experiment: Triton X-100 mixed micellar assay for protein kinase C activity; type: biochemical, rat; conditions: for inhibition of protein kinase C (specificity): mixed micellar assay
Experimental: Protein kinase C was partially purified from rat brain as described by Hanrun et al (J. Biol. Chem., 260, 10043, 1985), which is hereby incorporated by reference.
Protein kinase C was assayed with Triton X-100 mixed micelles as described by Hanrun et al, (ibid.), Sphingosine was dried down with the lipid cofactors.

[4] = tested on: human neutrophils; experiment: Oxygen consumption (oxidative burst) of human neutrophils; type: cell-based; conditions: for IC50: Homo sapiens, Neutrophil
Excerpt: Human neutrophils were obtained by continuous flow leukapheresis from normal adults. Residual erythrocytes were removed by hypotonic lysis with a resulting purity of >95% neutrophils. Alternatively peripheral blood was obtained by phlebotomy and neutrophils were isolated by HESPAN (6% Hetastarch, 0.9% NaCl) sedimentaion of erythrocytes, centrifugation through lymphocyte separation medium (9.4% sodium diatrizoate, 6.2% Ficoll), and hypotonic lysis of residual erythrocytes. Isolated cells were resuspended in phosphate buffered saline (PBS)-glucose, containing 0.6 mM CaCl2, 2.6 mM KCl, 1.5 mM KH2 PO4, 0.5 mM MgCl2, 136 mM NaCl, 8 mM Na2 HPO4, 5.5 mM glucose.
Oxygen consumption was measured using a Clark-type electrode with YSI model 53 oxygen monitor. Assays were conducted at 37° C. with 6.5×10^6 cells per ml with a total volume of either 2.5 ml or 4 ml. Effectors were injected into the electrode chamber using a Hamilton syringe. Initial slopes after the addition of the stimuli were used for rate calculations. For activators with a lag prior to the onset of the oxidative burst, maximal rates following the lag were used.

[5] = tested on: protein kinase C-induced phosphorylation of the 40 KDa polypeptide; experiment: 40K (40 kDa) protein phosphorylation in human platelets; type: cell-based
Experimental: They were then suspended in modified Tyrode's buffer to a concentration of 2.5×10^8 platelets/ml.
^32 Pi at 0.2 mCi/ml was added to the platelet suspension and labelling was allowed to proceed for 75 minutes at 37° C., after which the platelets were pelleted at 600×g for 10 minutes and resuspended in Tyrode's buffer to the same concentration. They were then aliquoted in Eppendorf microfuge tubes and preincubated at 37° C. for 5 minutes with the varying concentrations of sphingosine. Platelets were then stimulated with either 5 μM dioctanoylglycerol (added as an ethanol solution with the final concentration of ethanol 0.5%), 10 μM TPA, or 1 unit/ml thrombin. The reactions were stopped after 30 seconds by the addition of an equal volume of 2× sample buffer, and the samples were then boiled for 3 minutes. […] Gels were subsequently fixed in water/methanol/acetic acid (60:30:10), dried, and autoradiographed.

[6] = oxidative burst, PMA activation, read-out: Concentration required for 50% inhibition

In the case of CCCCCCCCCCCCCCC[C@@H](O)[C@@H](N)CO (relative stereo) [Sphinganine, erythro-dihydrosphingosine], the “% Adherence” value ([1]; 8 nM PMA + 1 μM sphinganine, 24 h) is reported as 26%, the “% Adherence” value ([1]; 8 nM PMA + 1 μM sphinganine, 24 h, listed as Sa) is reported as 25.5 ± 7.7% and the Adherence ([1]; 8 nM PMA + 2.5 μM sphinganine) is reported as 17.6±6.4%. The Adherence ([1]; 8 nM PMA + 5 μM sphinganine) was 15.0±2.1%, the “number of adherent cells” value ([1]; 8 nM PMA plus 1 μM sphinganine, 24 h) was 0.51 ×10^5 and the “Adherent cells (%)” value ([1]; 8 nM PMA, 1 μM sphinganine) was 85%. The “Adherent cells (%)” value ([1]; 8 nM PMA, 2.5 μM sphinganine) was 74%, the “Adherent cells (%)” value ([1]; 8 nM PMA, 5 μM sphinganine) was 70% and the “% Adherence” value ([1]; 1 μM sphinganine, no PMA, 24 h) was 3.7 ± 0.7%. The IC50 ([1]; HL-60, 8 nM PMA, read-out: 50% inhibition of PMA-induced attachment) was 3 µM, the “Adherent cells (%)” value ([1]; No PMA, 1 μM sphinganine) was 9% and the “Adherent cells (%)” value ([1]; No PMA, 2.5 μM sphinganine) was 11%. For the same molecule, the “Adherent cells (%)” value ([1]; No PMA, 5 μM sphinganine) was 6%, the Acid phosphatase ([2]; 8 nM PMA, adherent cells, 1 μM sphinganine) was 0.64 nmol/h/105 cells and the Acid phosphatase ([2]; 8 nM PMA, adherent cells, 2.5 μM sphinganine) was 0.60 nmol/h/105 cells. It also gave an Acid phosphatase ([2]; 8 nM PMA, adherent cells, 5 μM sphinganine) of 0.64 nmol/h/105 cells, an Acid phosphatase ([2]; 8 nM PMA, suspended cells, 1 μM sphinganine) of 0.19 nmol/h/105 cells and an Acid phosphatase ([2]; 8 nM PMA, suspended cells, 2.5 μM sphinganine) of 0.12 nmol/h/105 cells. It also gave an Acid phosphatase ([2]; 8 nM PMA, suspended cells, 5 μM sphinganine) of 0.06 nmol/h/105 cells, an Acid phosphatase ([2]; No PMA, suspended cells, 1 μM sphinganine) of 0.25 nmol/h/105 cells and an Acid phosphatase ([2]; No PMA, suspended cells, 2.5 μM sphinganine) of 0.22 nmol/h/105 cells. For the same molecule, the Acid phosphatase ([2]; No PMA, suspended cells, 5 μM sphinganine) was 0.16 nmol/h/105 cells, the “inhibition of protein kinase C (specificity)” value [3] was “inhibitors” and the “PMA-induced oxygen consumption after washing out sphinganine” value ([4]; 40 μM sphinganine 5-10 min, then washed twice with 50 μM fatty acid-free BSA) was 3.7 nmols/min/10^6 cells. For the same molecule, the “RATE of oxygen consumption, SPHINGANINE” value ([4]; 50 μM sphinganine 3 min before Arachidonate (83 μM)) was 0.2 nmols O2 consumed/min/10^6 cells, the “RATE of oxygen consumption, SPHINGANINE” value ([4]; 50 μM sphinganine 3 min before Dioctanoyl Glycerol (100 μM)) was 0.3 nmols O2 consumed/min/10^6 cells and the “RATE of oxygen consumption, SPHINGANINE” value ([4]; 50 μM sphinganine 3 min before FMLP (0.5 μM) + Cytochalasin B (5 μg/ml)) was 0.3 nmols O2 consumed/min/10^6 cells. The “RATE of oxygen consumption, SPHINGANINE” value ([4]; 50 μM sphinganine 3 min before Opsonized zymosan (30 μg/ml)) was 0.3 nmols O2 consumed/min/10^6 cells, the “RATE of oxygen consumption, SPHINGANINE” value ([4]; 50 μM sphinganine 3 min before Phorbol Myristate Acetate (1 μM)) was 0.2 nmols O2 consumed/min/10^6 cells and the IC50 ([4]; activator PMA, read-out: half maximal inhibition of oxygen consumption) was 6.7 µM. The IC50 ([4]; activator dioctanoylglycerol, read-out: half maximal inhibition of oxygen consumption) was 7.4 µM, the IC50 ([4]; activator opsonized zymosan, read-out: half maximal inhibition of oxygen consumption) was 5.6 µM and the IC50 ([4]; approximately 7.5×10^6 cells/ml, read-out: concentration for 50% inhibition, oxygen consumption assay) was 6 to 8 µM. The IC50 [4, 6] was 7 µM and the “activation of the oxidative burst by A23187” value ([4]; preliminary studies) was “blocked”.
With CCCCCCCCCCCCC/C=C/[C@@H](O)[C@@H](N)CO [sphingosine] the IC50 ([1]; HL-60, read-out: 50% inhibition of PMA-induced attachment) was 1 µM, the “inhibition of thrombin-induced 40K phosphorylation” value ([5]; 25 μM sphingosine) was “nearly complete inhibition” and the “inhibition of thrombin-induced 40K phosphorylation” value ([5]; concentrations as low as 10 μM) was “Partial inhibition”. For the same molecule, the “inhibition of TPA and diC8-induced 40K phosphorylation” value ([5]; data not shown) was “inhibited”, the “sphingosine required for complete inhibition (mol % sphingosine:phospholipids)” value ([5]; platelet 40K phosphorylation, similar to in vitro inhibition of protein kinase C) was 3-5 mol % and the “Hill number of the PS dependence of protein kinase C activation” value ([3]; 2 mol % sphingosine) was 6.9. The “Hill number of the PS dependence of protein kinase C activation” value ([3]; 4 mol % sphingosine) was 8.8, the “type of inhibition with respect to diC18:1” value ([3]; 6 mol % PS, 50 μM Ca2+, double reciprocal plots) was “competitive” and the IC50 ([3]; Triton X-100 mixed micelles, 6 mol % PS, 2 mol % diC18:1, read-out: 50% inhibition of protein kinase C activity) was 100 µM. For the same molecule, the “type of inhibition with respect to phorbol dibutyrate” value ([3]; double reciprocal plots) was “competitive inhibition”, the “type of inhibition with respect to Ca2+” value ([3]; fixed PS and diC18:1, 3 and 4 mol % sphingosine) was “appeared competitive” and the “inhibition of protein kinase C (specificity)” value [3] was “potent and reversible inhibitor”. It also gave an IC50 [4, 6] of 9 µM.

— patent publication US4937232A, “Inhibition of protein kinase C by long-chain bases” (priority 1988, dated 1990)
